Results published in PubChem BioAssay (NCI).
Values joined by “and” are separate entries in the source; they are usually repeats but may differ in a detail not shown here. Equal entries are not always repeated.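 1) Cells in 96-well plates. 2) Compound, 48 h, 5 concentrations. 3) Linear interpolation between surrounding doses. 4) Unreached endpoint = highest concentration. GI50 marks 50% less growth. TGI denotes the concentration required for complete inhibition of growth.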

How the values were obtained:
Assay in all cases: inhibition of tumour cell growth, NCI panel, 48 h
A498 renal = test system: A498 renal
HCC-2998 colon = test system: HCC-2998 colon
HCT-15 colon = test system: HCT-15 colon
HOP-62 NSCLC = test system: HOP-62 NSCLC
HS 578T breast = test system: HS 578T breast
HT29 colon = test system: HT29 colon
IGROV1 ovarian = test system: IGROV1 ovarian
MALME-3M melanoma = test system: MALME-3M melanoma
MCF7 breast = test system: MCF7 breast
NCI-H226 lung = test system: NCI-H226 lung
NCI-H460 lung = test system: NCI-H460 lung
OVCAR-8 ovarian = test system: OVCAR-8 ovarian
PC-3 prostate = test system: PC-3 prostate
SF-295 CNS = test system: SF-295 CNS
SK-MEL-2 melanoma = test system: SK-MEL-2 melanoma
SN12C renal = test system: SN12C renal
SNB-75 CNS = test system: SNB-75 CNS
T-47D breast = test system: T-47D breast
UACC-257 melanoma = test system: UACC-257 melanoma

SMILES | TGI (A498 renal) [µM] | TGI (HCC-2998 colon) [µM] | TGI (HCT-15 colon) [µM] | TGI (HOP-62 NSCLC) [µM] | TGI (HS 578T breast) [µM] | TGI (HT29 colon) [µM] | TGI (IGROV1 ovarian) [µM] | TGI (MALME-3M melanoma) [µM] | TGI (MCF7 breast) [µM] | TGI (NCI-H226 lung) [µM] | TGI (NCI-H460 lung) [µM] | TGI (OVCAR-8 ovarian) [µM] | TGI (PC-3 prostate) [µM] | TGI (SF-295 CNS) [µM] | TGI (SK-MEL-2 melanoma) [µM] | TGI (SN12C renal) [µM] | TGI (SNB-75 CNS) [µM] | TGI (T-47D breast) [µM] | TGI (UACC-257 melanoma) [µM] | GI50 (HCC-2998 colon)
C=CCn1cnc2c(=O)[nH]c(Nc3ccccc3)nc21 | > 100 | > 100 | > 100 | > 100 | > 100 | > 100 | > 100 | > 100 | > 100 | > 100 | > 100 | > 100 | > 100 | > 100 | > 100 | > 100 | > 100 | > 100 | > 100 | –
Cc1ccc(C)n1-n1c(-c2ccccc2)n[nH]c1=O | > 100 | > 100 | > 100 | > 100 | > 100 | > 100 | > 100 | > 100 | > 100 | > 100 | > 100 | > 100 | > 100 | > 100 | > 100 | > 100 | > 100 | > 100 | > 100 | –
Oc1ccc(-c2cn3cc(C(F)(F)F)ccc3n2)cc1 | > 100 | 42.3 | > 100 | > 100 | > 100 | > 100 | > 100 | > 100 | > 100 | > 100 | > 100 | > 100 | > 100 | > 100 | > 100 | > 100 | > 100 | 60.7 | > 100 | –
COC1(CC[C@H](C)COC2OC(CO)C(O)C(O)C2O)O[C@H]2C[C@H]3[C@@H]4CC=C5C[C@@H](OC6OC(CO)C(O)C(OC7OC(CO)C(O)C(O)C7O)C6OC6OC(C)C(O)C(O)C6O)CC[C@]5(C)[C@H]4CC[C@]3(C)[C@H]2[C@@H]1C (some centres not stated) | 34.5 | 11.6 | 7.43 | 12.4 | 24.6 | > 21.8 | 11.8 | 6.11 | 37.7 | 18.6 | 11.6 | 9.47 | 16.6 | 10.1 | 25.2 | > 31.1 | 7.25 | 9.68 | 22 | –
CC(NC(NC(C)C12CC3CC(CC(C3)C1)C2)=C(C(Cl)=C(Cl)Cl)[N+](=O)[O-])C12CC3CC(CC(C3)C1)C2 (configuration not stated) | > 100 | > 75 | > 100 | > 100 | 53.9 | 18.1 | 30.1 | > 95.6 | > 58.7 | > 61.7 | 21.8 | 7.41 | > 65.2 | > 100 | > 67.6 | 23.2 | > 100 | > 100 | > 54.6 | –
Cn1c(=O)oc2cc(Br)ccc21 | > 100 | > 100 | > 100 | > 100 | > 100 | > 100 | > 100 | > 100 | > 100 | > 100 | > 100 | > 100 | > 100 | > 100 | > 100 | > 100 | > 100 | > 100 | > 100 | –
CC1OC(O[C@H]2CC[C@]3(C=O)[C@H]4CC[C@]5(C)[C@H](C6=CC(=O)OC6)CC[C@]5(O)[C@@H]4C=C[C@]3(O)C2)CC(O)C1O (some centres not stated) | 0.611 | 2.92 | 0.62 | 0.503 | 4.2 | 1.5 | 4.5 | 0.361 | 2.71 | 1.33 | 0.423 | 0.754 | 0.657 | 0.489 | 1.14 | 0.464 | 2.31 | 1.27 | 1.82 | –
COc1ccc2c(CCNS(=O)(=O)c3ccccc3)c(C(C)=O)[nH]c2c1 | > 100 | > 100 | > 100 | > 100 | > 100 | > 100 | > 100 | > 100 | > 100 | > 100 | > 100 | > 100 | > 100 | > 100 | > 100 | > 100 | > 100 | > 86.8 | > 57.1 | –
O=C1C(Cl)=C(N2CCN(c3ccccn3)CC2)C(=O)c2ncccc21 | 23.8 | 30.4 | 3.12 | 25.6 | 5.95 | 9.93 | 6.63 | 3.21 | 3.21 | 18.2 | 13.4 | 2.77 | 7.52 | 18.8 | 4.02 | 7 | 19.8 | 3.16 | 3.24 | –
COC(=O)c1c(C(=O)OC)c2c3ccccc3n(C)c2c2c1c1ccccc1n2C | > 100 | > 100 | > 100 | 75 | > 100 | > 100 | > 100 | > 100 | > 100 | > 100 | > 100 | > 100 | > 100 | > 100 | > 100 | > 100 | > 100 | > 100 | > 100 | –
C=C1CC(CN2CCC(=O)NC2=O)(c2ccccc2)OC1=O (configuration not stated) | 37.6 | 29.7 | 18.5 | 40.3 | 34.6 | 25.3 | 20.7 | 8.78 | 2.71 | 34.3 | 38.2 | 36.7 | 30.4 | 43 | 27.9 | 33.4 | 32.3 | 11.7 | 30.8 | –
CN(C)Cc1cc(N=Nc2ccc(Cl)cc2)ccc1O | 31.8 | 28.6 | 29.1 | 21.7 | 31.3 | 26.4 | 32.3 | 27.2 | 31.4 | 30.3 | 26.7 | 30.6 | 30.3 | 30.9 | 38.1 | 33.1 | 28.8 | 28.3 | 32.7 | –
O=c1[nH]c(=O)n(C/C=C/CBr)nc1Br | 26.3 | 28.3 | 27.9 | 37.9 | 53.8 | 26.1 | 29.5 | 27.5 | 22.2 | 27.8 | 37 | 29.9 | 24.6 | 31.1 | 26 | 28.1 | 24.3 | 28.2 | 24.9 | –
CC(=O)N=C1N(/C=C2\C(=O)Oc3ccccc3C2=O)C(=O)/C(=C/c2ccccc2Cl)N1C | 96.7 | > 100 | > 100 | > 100 | 34.9 | > 100 | > 100 | > 100 | > 100 | > 100 | > 100 | > 100 | > 100 | > 100 | > 100 | > 100 | > 100 | > 100 | > 100 | –
N#Cc1c(-c2ccccc2)c(C#N)c(=O)n(C2OC(CO)C(O)C(O)C2O)c1S (configuration not stated) | > 100 | > 100 | > 100 | > 100 | > 100 | > 100 | > 100 | > 100 | > 100 | > 100 | > 100 | > 100 | > 100 | > 100 | > 100 | > 100 | > 100 | > 100 | > 100 | > 100 µM and 40.4 µM
CC(Oc1ccccc1Cl)C(=O)NN1C(=O)CSC1c1ccc(Cl)cc1 (configuration not stated) | 34.8 | 34.2 | 43.8 | 36.4 | 46.3 | 39.5 | 43 | 93.4 | 35.7 | 35.3 | 59.8 | 56.5 | 38.2 | 37.8 | 44.9 | 28 | 45.4 | 52.1 | 45.1 | –
CCN(CC)COC(=S)S | > 100 | > 78.1 | > 100 | > 100 | > 100 | > 100 | > 100 | > 100 | > 100 | > 100 | > 100 | > 100 | > 100 | > 100 | 57 | > 100 | > 90.2 | > 100 | > 76.3 | –
COc1cccc2cc(C(=O)Nc3ccccn3)c(=N)oc12 | > 100 | > 100 | > 100 | > 100 | > 100 | > 100 | > 100 | > 100 | > 100 | > 100 | > 100 | > 100 | > 100 | > 100 | > 100 | > 100 | > 100 | > 100 | > 100 | –
NC(=S)NS(=O)(=O)c1ccc(F)cc1F | > 100 | > 100 | > 100 | > 100 | > 100 | > 100 | > 100 | > 100 | > 100 | > 100 | > 100 | > 100 | > 100 | > 100 | > 100 | > 100 | > 100 | > 100 | > 100 | –
O=C(O)C12C3CCC(O3)C1(C(=O)O)C1CCC2O1 (configuration not stated) | > 100 | > 100 | > 100 | > 100 | > 100 | > 100 | > 100 | > 100 | > 100 | > 100 | > 100 | > 100 | > 100 | > 100 | > 100 | > 100 | > 100 | > 100 | > 100 | –
O=C1C(Cl)C(c2cc3cc(Br)ccc3nc2Cl)N1c1c(Cl)cccc1Cl (configuration not stated) | > 25 | > 25 | > 25 | > 25 | > 25 | > 25 | > 25 | > 25 | 22.6 | > 25 | > 25 | > 25 | > 25 | > 25 | > 25 | > 25 | > 25 | > 25 | > 25 | –
Cc1c(-c2ccccc2)c(C#N)c2nnn(-c3cccc(Cl)c3)c(=O)n12 | 98.5 | > 100 | > 100 | > 100 | > 100 | > 100 | > 100 | > 100 | > 100 | > 100 | > 100 | > 100 | 75.9 | > 100 | 67.2 | > 100 | > 100 | > 100 | > 100 | –
CCC1=NC(C(F)(F)F)(C(F)(F)F)N=C(/N=C(/N)N(C)C(C(C)C)P(=O)(OC(C)C)OC(C)C)O1 (configuration not stated) | > 100 | > 100 | > 100 | > 100 | > 100 | > 100 | > 100 | > 100 | > 100 | > 100 | > 100 | > 100 | > 100 | > 100 | > 100 | > 100 | > 100 | > 100 | > 100 | –
O=C(CN(c1ccc(S(=O)(=O)O)cc1)c1ccc(S(=O)(=O)O)cc1)Nn1cnc2ccc(S(=O)(=O)N(c3ccc(S(=O)(=O)O)cc3)c3ccc(S(=O)(=O)O)cc3)cc2c1=O | > 100 | > 100 | > 100 | > 100 | > 100 | > 100 | > 100 | > 100 | > 100 | > 100 | > 100 | > 100 | > 100 | > 100 | > 100 | > 100 | > 100 | > 100 | > 100 | –
